Measured values as given in patent US20240199605A1, “SMALL MOLECULAR INHIBITORS OF NF-kB INDUCING KINASE” (Janssen Pharmaceutica NV, priority 2019, published 2024).
Where two headings read alike, the source gives them in different places.

Tests used:
[1] = system: p-IKKα levels in L363 (NIK translocated multiple myeloma) cells; test: Effect of compounds on p-IKKα levels in L363 cells (AlphaLISA SureFire Ultra); format: cell-based, human; conditions: BAFF stimulated, MG132, 6 h, average of values, read-out: Assay 2 IC50
In short: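 Inhibition of p-IKKα (Ser176/180) read by AlphaLISA after 6 h, 37 °C compound exposure (11-point 1:3 series, 0.3% DMSO) of L363 cells pre-incubated overnight ± 250 ng/ml BAFF and plated ± BAFF ± 10 μM MG132. Normalised to BAFF/MG132/DMSO and unstimulated controls; IC50 by sigmoidal fitting, duplicates.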

[2] = biological target: recombinant human NF-kappaB-inducing kinase (NIK/MAP3K14) (Homo sapiens (Human), UniProt Q99558); test: Inhibition of auto-phosphorylation of recombinant human NIK/MAP3K14 (AlphaScreen); format: biochemical; conditions: NIK auto-phosphorylation, 5 μM ATP, 1 nM NIK, 2 h at 25° C.; average of values
In short: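 AlphaScreen read-out (anti-phospho-IKK Ser176/180 antibody, Protein A acceptor and glutathione donor beads) of NIK auto-phosphorylation. Reaction: 1 nM enzyme, 5 μM ATP, Tris pH 7.5 buffer with Mg2+ and vanadate, 2 h at 25° C., final DMSO 0.7%. IC50 came from a sigmoidal curve fit.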

recombinant human NF-kappaB-inducing kinase (NIK/MAP3K14), sequence (Q99558 whole entry): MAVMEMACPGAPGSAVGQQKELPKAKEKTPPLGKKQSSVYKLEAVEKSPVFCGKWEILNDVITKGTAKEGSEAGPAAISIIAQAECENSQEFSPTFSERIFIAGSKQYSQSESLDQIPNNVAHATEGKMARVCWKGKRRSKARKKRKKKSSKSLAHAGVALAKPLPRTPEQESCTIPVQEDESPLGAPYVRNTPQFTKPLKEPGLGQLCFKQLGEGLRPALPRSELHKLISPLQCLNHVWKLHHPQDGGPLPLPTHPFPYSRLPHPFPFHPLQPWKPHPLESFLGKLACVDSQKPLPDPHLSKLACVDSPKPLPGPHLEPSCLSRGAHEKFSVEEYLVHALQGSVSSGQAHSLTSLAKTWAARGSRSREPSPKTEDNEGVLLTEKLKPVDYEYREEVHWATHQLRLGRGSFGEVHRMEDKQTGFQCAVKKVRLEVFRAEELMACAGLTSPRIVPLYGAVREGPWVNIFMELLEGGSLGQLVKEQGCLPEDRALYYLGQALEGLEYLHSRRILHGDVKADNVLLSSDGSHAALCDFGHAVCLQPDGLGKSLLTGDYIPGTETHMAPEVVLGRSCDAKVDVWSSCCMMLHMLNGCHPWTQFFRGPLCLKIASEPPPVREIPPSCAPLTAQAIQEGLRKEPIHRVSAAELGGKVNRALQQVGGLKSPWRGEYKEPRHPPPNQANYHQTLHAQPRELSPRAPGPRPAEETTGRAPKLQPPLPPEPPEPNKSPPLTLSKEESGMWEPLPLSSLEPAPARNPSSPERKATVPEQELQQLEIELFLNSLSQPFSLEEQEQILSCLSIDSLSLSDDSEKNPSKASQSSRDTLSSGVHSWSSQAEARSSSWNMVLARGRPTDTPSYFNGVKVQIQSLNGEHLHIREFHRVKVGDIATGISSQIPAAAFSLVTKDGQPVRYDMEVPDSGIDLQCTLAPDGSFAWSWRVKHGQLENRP

| SMILES | IC50 ([1]; Homo sapiens, L-363, 6 h) | IC50 [2] | IC50 [1] |
| --- | --- | --- | --- |
| Cc1ncnc2ccc(-c3cccc(C#C[C@]4(O)CCN(C)C4=O)c3)nc12 [Example 23, (R)-3-Hydroxy-1-methyl-3-((3-(4-methylpyrido[3,2-d]pyrimidin-6-yl)phenyl)ethynyl)pyrrolidin-2-one] | 260 nM | 10 nM |  |
| Cc1nc(N)c2nc(-c3cccc(C#C[C@@]4(O)C(=O)N(C)C[C@@H]4C)c3)ccc2n1 (stereo in doubt) [Example 291, (3R,4S*)-3-((3-(4-Amino-2-methylpyrido[3,2-d]pyrimidin-6-yl)phenyl)ethynyl)-3-hydroxy-1,4-dimethylpyrrolidin-2-one] | 1390 nM | 54 nM |  |
| Cc1nc(N)c2nc(-c3cccc(C#CC4(O)CCCc5cccnc54)c3)ccc2n1 (racemic) [Example 165, racemic-8-((3-(4-Amino-2-methylpyrido[3,2-d]pyrimidin-6-yl)phenyl)ethynyl)-5,6,7,8-tetrahydroquinolin-8-ol] | > 5000 nM | 120 nM |  |
| Cc1nc(N)c2nc(-c3cccc(C#C[C@]4(O)CCCN(C)C4=O)c3)ccc2n1 [Example 187, (R)-3-((3-(4-Amino-2-methylpyrido[3,2-d]pyrimidin-6-yl)phenyl)ethynyl)-3-hydroxy-1-methylpiperidin-2-one] | 190 nM | 3.8 nM |  |
| CN1CC[C@](O)(C#Cc2cccc(-c3cc(Br)c4ncnc(N)c4n3)c2)C1=O [Example 254, (S)-3-((3-(4-Amino-8-bromopyrido[3,2-d]pyrimidin-6-yl)phenyl)ethynyl)-3-hydroxy-1-methylpyrrolidin-2-one] | 1330 nM | 230 nM |  |
| Cc1nc(N)c2nc(-c3cccc(C#C[C@]4(O)C(=O)N(C)[C@H]5C[C@H]54)c3)ccc2n1 [Example 274, (1S,4S,5R)-4-((3-(4-Amino-2-methylpyrido[3,2-d]pyrimidin-6-yl)phenyl)ethynyl)-4-hydroxy-2-methyl-2-azabicyclo[3.1.0]hexan-3-one] | > 5000 nM | 1930 nM |  |
| CN1CC[C@@](O)(C#Cc2cccc(-c3ccc4[nH]nc(N)c4n3)c2)C1=O [Example 22, (R)-3-[2-[3-(3-Amino-1H-pyrazolo[4,3-b]pyridin-5-yl)phenyl]ethynyl]-3-hydroxy-1-methyl-pyrrolidin-2-one] | 480 nM | 4.3 nM |  |
| Cc1nc(N)c2nc(-c3cccc(C#C[C@@](C)(O)c4ccccn4)c3)ccc2n1 [Example 190, (R)-4-[3-(4-Amino-2-methyl-pyrido[3,2-d]pyrimidin-6-yl)phenyl]-2-(2-pyridyl)but-3-yn-2-ol] | > 5000 nM | 1830 nM |  |
| CN1CC[C@@](O)(C#Cc2cccc(-c3ccc4ncnc(N5CC(Cl)C5)c4n3)c2)C1=O [Example 244, (R)-3-((3-(4-(3-Chloroazetidin-1-yl)pyrido[3,2-d]pyrimidin-6-yl)phenyl)ethynyl)-3-hydroxy-1-methylpyrrolidin-2-one] | 240 nM | 4.9 nM |  |
| CN1CC[C@@](O)(C#Cc2cccc(-c3nc4c(N)ncnc4n3C)c2)C1=O [Example 143, (R)-3-((3-(6-Amino-9-methyl-9H-purin-8-yl)phenyl)ethynyl)-3-hydroxy-1-methylpyrrolidin-2-one] | > 5000 nM | 420 nM |  |
| [2H]C([2H])([2H])N1CC[C@@](O)(C#Cc2ccc(C)c(-c3ccc4ccnc(N)c4c3)c2)C1=O [Example 70, (R)-3-[2-[3-(1-Amino-7-isoquinolyl)-4-methyl-phenyl]ethynyl]-3-hydroxy-1-(trideuteriomethyl)pyrrolidin-2-one] |  | 26 nM | 2210 nM |
| CN1CC[C@@](O)(C#Cc2cccc(-n3cc4c(N)ncnc4n3)c2)C1=O [Example 179, (R)-3-((3-(4-Amino-2H-pyrazolo[3,4-d]pyrimidin-2-yl)phenyl)ethynyl)-3-hydroxy-1-methylpyrrolidin-2-one] | > 5000 nM | 1170 nM |  |
| Cc1nc(N)c2nc(-c3cccc(C#C[C@](C)(O)c4nc(C(F)(F)F)cs4)c3)ccc2n1 [Example 193, (S)-4-(3-(4-Amino-2-methylpyrido[3,2-d]pyrimidin-6-yl)phenyl)-2-(4-(trifluoromethyl)thiazol-2-yl)but-3-yn-2-ol] | > 5000 nM | 2370 nM |  |
| CN(C)Cc1cnc(N)c2nc(-c3cccc(C#C[C@]4(O)CCN(C)C4=O)c3)ccc12 [Example 172, (R)-3-[2-[3-[8-Amino-5-(dimethylaminomethyl)-1,7-naphthyridin-2-yl]phenyl]ethynyl]-3-hydroxy-1-methyl-pyrrolidin-2-one] | 400 nM | 20 nM |  |
| Cc1nnc([C@](C)(O)C#Cc2cccc(-c3ccc4ccnc(N)c4n3)c2)o1 [Example 88, (R)-4-[3-(8-Amino-1,7-naphthyridin-2-yl)phenyl]-2-(5-methyl-1,3,4-oxadiazol-2-yl)but-3-yn-2-ol] | 400 nM | 4.7 nM |  |

Stronger by IC50 [2], values ahead:

| IC50 ([1]; Homo sapiens, L-363, 6 h) | IC50 [2] | IC50 [1] | SMILES |
| --- | --- | --- | --- |
| 7.7 nM | 0.9 nM |  | Cc1cc(-c2cccc(C#C[C@@]3(O)C(=O)N(C)[C@@H]4C[C@@H]43)c2)nc2c(N)ncnc12 [Example 281, (1R,4R,5S)-4-((3-(4-Amino-8-methylpyrido[3,2-d]pyrimidin-6-yl)phenyl)ethynyl)-4-hydroxy-2-methyl-2-azabicyclo[3.1.0]hexan-3-one] |
| 160 nM | 1.2 nM |  | CN1CC[C@@](O)(C#Cc2cccc(-c3cc4c(N)ncnc4cn3)c2)C1=O [Example 111, (R)-3-[2-[3-(4-Aminopyrido[3,4-d]pyrimidin-6-yl)phenyl]ethynyl]-3-hydroxy-1-methyl-pyrrolidin-2-one] |
| 36 nM | 2 nM |  | CN1CC[C@@](O)(C#Cc2ccc(OC(F)(F)F)c(-c3ncc4ccnc(N)c4n3)c2)C1=O [Example 56, (R)-3-((3-(8-Aminopyrido[3,4-d]pyrimidin-2-yl)-4-(trifluoromethoxy)phenyl)ethynyl)-3-hydroxy-1-methylpyrrolidin-2-one] |
| 21 nM | ≤ 0.5 nM |  | Cc1cnc(N)c2nc(-c3cccc(C#C[C@]4(O)CCN(C)C4=O)c3)ccc12 [Example 120, (R)-3-[2-[3-(8-Amino-5-methyl-1,7-naphthyridin-2-yl)phenyl]ethynyl]-3-hydroxy-1-methyl-pyrrolidin-2-one] |
| 11 nM | 0.9 nM |  | CN1CC[C@@](O)(C#Cc2cccc(-c3cc(-n4cccn4)c4ncnc(N)c4n3)c2)C1=O [Example 303, (R)-3-[2-[3-(4-Amino-8-pyrazol-1-yl-pyrido[3,2-d]pyrimidin-6-yl)phenyl]ethynyl]-3-hydroxy-1-methyl-pyrrolidin-2-one] |
| 16 nM | 1.1 nM |  | Cc1nc(N)c2nc(-c3cccc(C#C[C@]4(O)CCN(C)C4=O)c3)nc(C)c2n1 [Example 156, (R)-3-((3-(8-Amino-4,6-dimethylpyrimido[5,4-d]pyrimidin-2-yl)phenyl)ethynyl)-3-hydroxy-1-methylpyrrolidin-2-one] |
| 46 nM | 0.8 nM |  | Cc1nnc([C@](C)(O)C#Cc2cccc(-c3ccc4ncnc(N)c4n3)c2)o1 [Example 97, (R)-4-(3-(4-Aminopyrido[3,2-d]pyrimidin-6-yl)phenyl)-2-(5-methyl-1,3,4-oxadiazol-2-yl)but-3-yn-2-ol] |
| 3.1 nM | 0.9 nM |  | [2H]C([2H])([2H])c1cc(-c2cccc(C#C[C@]3(O)CCN(C)C3=O)c2)nc2c(N)ncnc12 [Example 286, (R)-3-((3-(4-Amino-8-(methyl-da)pyrido[3,2-d]pyrimidin-6-yl)phenyl)ethynyl)-3-hydroxy-1-methylpyrrolidin-2-one] |
| 9.9 nM | ≤ 0.5 nM |  | CN1CCC(O)(C#Cc2cccc(-c3ccc4ccnc(N)c4n3)c2)C1=O (stereo in doubt) [Example 19, (R)-3-[2-[3-(8-Amino-1,7-naphthyridin-2-yl)phenyl]ethynyl]-3-hydroxy-1-methyl-pyrrolidin-2-one] |
| 17 nM | ≤ 0.5 nM |  | Cc1cnc(N)c2nc(-c3cccc(C#C[C@@](C)(O)c4nccs4)c3)ncc12 [Example 50, (R)-4-(3-(8-Amino-5-methylpyrido[3,4-d]pyrimidin-2-yl)phenyl)-2-(thiazol-2-yl)but-3-yn-2-ol] |
| 12 nM | ≤ 0.5 nM |  | [2H]C([2H])([2H])N1CC[C@@](O)(C#Cc2cccc(-c3ccc4nc(CF)nc(N)c4n3)c2)C1=O [Example 208, (R)-3-((3-(4-Amino-2-(fluoromethyl)pyrido[3,2-d]pyrimidin-6-yl)phenyl)ethynyl)-3-hydroxy-1-(methyl-d3)pyrrolidin-2-one] |
| 12 nM | 1.7 nM |  | CN1CC[C@@](O)(C#Cc2cccc(-c3cc(OC(F)F)c4ncnc(N)c4n3)c2)C1=O [Example 299, (R)-3-[2-[3-[4-Amino-8-(difluoromethoxy)pyrido[3,2-d]pyrimidin-6-yl]phenyl]ethynyl]-3-hydroxy-1-methyl-pyrrolidin-2-one] |
| 11 nM | ≤ 0.5 nM |  | Cc1cc(-c2cccc(C#C[C@]3(O)CCN(C)C3=O)c2)cc2c(N)ncnc12 [Example 110, (R)-3-((3-(4-Amino-8-methylquinazolin-6-yl)phenyl)ethynyl)-3-hydroxy-1-methylpyrrolidin-2-one] |
| 57 nM | 0.7 nM |  | CN1CC[C@@](O)(C#Cc2cccc(-c3ccc4ncnc(N)c4c3)c2)C1=O [Example 16, (R)-3-[2-[3-(4-Aminoquinazolin-6-yl)phenyl]ethynyl]-3-hydroxy-1-methyl-pyrrolidin-2-one] |
